# In US9505749B2, “Quinazolinone compounds and derivatives thereof” (AMGEN INC., priority 2012, dated 2016):
# Read-outs that look alike come from different tables or passages of the source.
# Columns and labels:
# [1] = test system: total β-catenin in SW480 colorectal cells; assay: Total β-catenin MSD 96-well plate assay for SW480 cells; conditions: Homo sapiens, SW480, read-out: SW480-Total beta-catenin (TBC) IC50 IP
# [2] = test system: Axin2 accumulation in SW480 cells; assay: Axin2 384 immunofluorescence assay; assay type: cell-based; conditions: Homo sapiens, read-out: Axin2 384 IF EC50
# PARP1 = PARP1 (Homo sapiens (Human), UniProt P09874); assay: PARP1 biochemical assay (Trevigen kit)
# PARP1, sequence (P09874 whole entry): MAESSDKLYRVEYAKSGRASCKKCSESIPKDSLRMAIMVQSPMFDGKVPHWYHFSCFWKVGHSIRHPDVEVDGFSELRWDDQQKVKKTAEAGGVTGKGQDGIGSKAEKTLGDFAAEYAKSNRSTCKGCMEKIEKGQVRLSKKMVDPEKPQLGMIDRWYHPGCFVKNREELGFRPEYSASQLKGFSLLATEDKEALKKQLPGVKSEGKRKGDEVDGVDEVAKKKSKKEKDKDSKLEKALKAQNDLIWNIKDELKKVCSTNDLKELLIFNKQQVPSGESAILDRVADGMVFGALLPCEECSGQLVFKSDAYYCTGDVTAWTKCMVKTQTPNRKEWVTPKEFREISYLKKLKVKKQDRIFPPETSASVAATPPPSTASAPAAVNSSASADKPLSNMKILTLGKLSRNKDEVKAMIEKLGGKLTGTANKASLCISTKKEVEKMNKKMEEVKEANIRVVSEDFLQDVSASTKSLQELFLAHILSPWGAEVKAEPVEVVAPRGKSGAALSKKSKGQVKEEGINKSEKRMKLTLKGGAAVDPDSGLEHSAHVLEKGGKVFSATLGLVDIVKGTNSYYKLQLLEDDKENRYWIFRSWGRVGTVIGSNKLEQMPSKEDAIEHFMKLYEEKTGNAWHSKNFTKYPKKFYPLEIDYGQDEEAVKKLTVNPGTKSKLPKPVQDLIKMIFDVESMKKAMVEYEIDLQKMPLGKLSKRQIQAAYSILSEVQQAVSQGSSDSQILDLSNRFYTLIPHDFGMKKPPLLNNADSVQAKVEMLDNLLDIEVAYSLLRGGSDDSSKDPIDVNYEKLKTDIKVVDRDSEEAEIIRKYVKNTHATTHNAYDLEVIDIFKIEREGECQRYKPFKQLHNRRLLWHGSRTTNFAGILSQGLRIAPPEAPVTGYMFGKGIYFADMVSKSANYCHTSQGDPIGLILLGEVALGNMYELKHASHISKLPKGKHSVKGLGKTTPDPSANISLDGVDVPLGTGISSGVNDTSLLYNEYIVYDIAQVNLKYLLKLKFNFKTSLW
# Text: PARP1 biochemical assay was purchased as a kit from Trevigen (cat.#4676-096-K) and used per manufacturers recommendations.
# PARP2 = PARP2 (Homo sapiens (Human), UniProt Q9UGN5); assay: PARP2 biochemical assay (BPS kit)
# PARP2, sequence (Q9UGN5 whole entry): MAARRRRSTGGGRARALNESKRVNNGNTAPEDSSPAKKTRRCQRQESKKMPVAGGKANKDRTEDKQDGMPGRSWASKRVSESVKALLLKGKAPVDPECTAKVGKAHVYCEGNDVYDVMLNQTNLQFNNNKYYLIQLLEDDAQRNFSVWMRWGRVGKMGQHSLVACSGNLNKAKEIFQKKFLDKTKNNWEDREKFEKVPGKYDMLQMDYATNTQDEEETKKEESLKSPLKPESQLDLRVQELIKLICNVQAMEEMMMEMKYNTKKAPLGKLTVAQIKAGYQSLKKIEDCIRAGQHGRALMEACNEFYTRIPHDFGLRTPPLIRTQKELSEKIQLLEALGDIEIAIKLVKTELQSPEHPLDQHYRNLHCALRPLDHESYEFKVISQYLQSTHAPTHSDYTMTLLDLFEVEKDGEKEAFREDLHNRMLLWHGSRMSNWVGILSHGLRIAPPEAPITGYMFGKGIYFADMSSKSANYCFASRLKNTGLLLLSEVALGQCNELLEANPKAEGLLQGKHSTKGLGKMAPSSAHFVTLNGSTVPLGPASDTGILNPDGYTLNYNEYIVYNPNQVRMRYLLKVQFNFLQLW
# [3] = target: 6×HIS-tankyrase 2 (946-1162) (Homo sapiens (Human), UniProt Q9H2K2); assay: Tankyrase 2 biochemical assay (AlphaLisa, PARsylation); conditions: 250 nM NAD; read-out: TNKS2 IC50
# 6×HIS-tankyrase 2 (946-1162), sequence (Q9H2K2 946-1162): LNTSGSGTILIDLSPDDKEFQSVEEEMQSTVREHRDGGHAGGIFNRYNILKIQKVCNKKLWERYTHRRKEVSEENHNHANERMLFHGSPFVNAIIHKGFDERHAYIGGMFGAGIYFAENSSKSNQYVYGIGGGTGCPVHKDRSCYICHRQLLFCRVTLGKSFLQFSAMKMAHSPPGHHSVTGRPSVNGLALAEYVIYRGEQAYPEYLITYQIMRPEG
SMILES,IC50 [1],"EC50 ([2]; SW480 cells, 24 hours)",IC50 (PARP1),IC50 (PARP2),IC50 [3],"EC50 ([2]; SW480, 24 h)"
"COc1ccc2c(c1)[nH]c(=O)n2C1CCN(C(=O)CCCc2nc3ccccc3c(=O)[nH]2)CC1 [Example 8, 2-(4-(4-(5-methoxy-2-oxo-2,3-dihydro-1H-benzimidazol-1-yl)-1-piperidinyl)-4-oxobutyl)-4(3H)-quinazolinone]",45.4 nM,81.8 nM,–,–,–,–
"O=C(CCCc1nc2ccccc2c(=O)[nH]1)N1CCC(n2nnc3ccccc32)CC1 [Example 75, 2-(4-(4-(1H-benzo[d][1,2,3]triazol-1-yl)piperidin-1-yl)-4-oxobutyl)quinazolin-4(3H)-one trifluoroacetic acid]",623 nM,383 nM,–,–,–,–
"O=C(CCCc1nc2ccccc2c(=O)[nH]1)N[C@H]1CC[C@H](n2c(=O)[nH]c3ccccc32)CC1 [Example 73, N-((1r,4r)-4-(2-oxo-2,3-dihydro-1H-benzo[d]imidazol-1-yl)cyclohexyl)-4-(4-oxo-3,4-dihydroquinazolin-2-yl)butanamide trifluoroacetic acid]",21 nM,–,–,–,–,29.6 nM
N#Cc1cccc(O[C@H]2CC[C@H](NC(=O)CCSc3nc4ccccc4c(=O)[nH]3)CC2)c1 [Example 109],47.8 nM,50.9 nM,> 85000 nM,> 170000 nM,–,–
"O=C(CCCc1nc2ccccc2c(=O)[nH]1)N1CCC(c2noc3ccc(F)cc23)CC1 [Example 72, 2-(4-(4-(5-fluorobenzo[d]isoxazol-3-yl)piperidin-1-yl)-4-oxobutyl)quinazolin-4(3H)-one trifluoroacetic acid]",1130 nM,630 nM,–,–,–,–
"O=C1Nc2cc(Cl)ccc2C1C1CCN(C(=O)CCCc2nc3ccccc3c(=O)[nH]2)CC1 (racemic) [Example 76, 2-(4-(4-((3S)-6-chloro-2-oxo-2,3-dihydro-1H-indol-3-yl)-1-piperidinyl)-4-oxobutyl)-4(3H)-quinazolinone trifluoroacetic acid and 2-(4-(4-((3R)-6-chloro-2-oxo-2,3-dihydro-1H-indol-3-yl)-1-piperidinyl)-4-oxobutyl)-4(3H)-quinazolinone trifluoroacetic acid]",3020 nM,–,–,–,–,2950 nM
"O=C(CCCc1nc2ccccc2c(=O)[nH]1)N1CCN(c2noc3ccccc23)CC1 [Example 71, 2-(4-(4-(benzo[d]isoxazol-3-yl)piperazin-1-yl)-4-oxobutyl)quinazolin-4(3H)-one trifluoroacetic acid]",3440 nM,4170 nM,–,–,–,–
"O=C(CCc1nc2ccccc2c(=O)[nH]1)N[C@H]1CC[C@H](c2nnc(-c3ccccc3F)o2)CC1 [Example 126, N-((1r,4r)-4-(5-(2-fluorophenyl)-1,3,4-oxadiazol-2-yl)cyclohexyl)-3-(4-oxo-3,4-dihydroquinazolin-2-yl)propanamide]",–,–,5100 nM,–,–,–
"O=C(CSc1nc2ccccc2c(=O)[nH]1)N[C@H]1CC[C@H](Oc2ccc(F)cc2)CC1 [Example 99, N-((1r,4r)-4-(4-fluorophenoxy)cyclohexyl)-2-((4-oxo-3,4-dihydroquinazolin-2-yl)thio) acetamide]",2420 nM,2160 nM,–,–,–,–
O=C(CCc1nc2ccccc2c(=O)[nH]1)N[C@H]1CC[C@H](n2c(=O)oc3ccccc32)CC1 [Example 80],42.3 nM,225 nM,–,–,–,–
"O=C(CCCc1nc2ccccc2c(=O)[nH]1)N[C@H]1CC[C@H](Oc2ccccc2)C1 [Example 65, 4-(4-oxo-3,4-dihydroquinazolin-2-yl)-N-((1S,3S)-3-phenoxycyclopentyl)butanamide+4-(4-oxo-3,4-dihydroquinazolin-2-yl)-N-((1R,3R)-3-phenoxycyclopentyl)butanamide]",> 10000 nM,–,–,–,–,–
"O=C(CCSc1nc2ccccc2c(=O)[nH]1)N[C@H]1CC[C@H](Oc2ccc(Cl)cc2)CC1 [Example 105, N-((1r,4r)-4-(4-chlorophenoxy)cyclohexyl)-3-((4-oxo-3,4-dihydroquinazolin-2-yl)thio) propanamide]",20 nM,35.9 nM,> 85000 nM,–,–,–

# More lines, main results first:
IC50 [1],"EC50 ([2]; SW480 cells, 24 hours)",IC50 (PARP1),IC50 (PARP2),IC50 [3],SMILES,"EC50 ([2]; SW480, 24 h)"
488 nM,–,2450 nM,2640 nM,–,"O=C(CCc1nc2ccccc2c(=O)[nH]1)N[C@H]1CC[C@H](c2nnc(-c3ccncc3)o2)CC1 [Example 132, 3-(4-oxo-3,4-dihydroquinazolin-2-yl)-N-((1r,4r)-4-(5-(pyridin-4-yl)-1,3,4-oxadiazol-2-yl)cyclohexyl)propanamide]",–
1.92 nM,0.666 nM,–,–,–,"O=C(CCSc1nc2ccccc2c(=O)[nH]1)N[C@H]1CC[C@H](c2nnc(-c3ccncc3)o2)CC1 [Example 124, 3-((4-oxo-3,4-dihydroquinazolin-2-yl)thio)-N-(trans-4-(5-(pyridin-4-yl)-1,3,4-oxadiazol-2-yl)cyclohexyl)propanamide]",–
253 nM,–,–,2110 nM,14.2 nM,"N#Cc1ccc(-c2nnc([C@H]3CC[C@H](NC(=O)CCc4nc5ccccc5c(=O)[nH]4)CC3)o2)cc1 [Example 134, N-((1r,4r)-4-(5-(4-cyanophenyl)-1,3,4-oxadiazol-2-yl)cyclohexyl)-3-(4-oxo-3,4-dihydroquinazolin-2-yl)propanamide]",–
1430 nM,8190 nM,–,–,–,"O=C(CCc1cc(=O)n2ccccc2n1)N[C@H]1CC[C@H](c2nnc(-c3ccccc3)o2)CC1 [Example 38, 3-(4-oxo-4H-pyrido[1,2-a]pyrimidin-2-yl)-N-((1r,4r)-4-(5-phenyl-1,3,4-oxadiazol-2-yl)cyclohexyl) propanamide]",–
1950 nM,8750 nM,–,8450 nM,–,"O=C(CCc1nc2ncccc2c(=O)[nH]1)N[C@H]1CC[C@H](c2nnc(-c3ccccc3)o2)CC1 [Example 81, 3-(4-oxo-3,4-dihydropyrido[2,3-d]pyrimidin-2-yl)-N-((1r,4r)-4-(5-phenyl-1,3,4-oxadiazol-2-yl)cyclohexyl) propanamide]",–
> 10000 nM,–,–,–,–,"O=C(CCc1nc2ccccc2c(=O)[nH]1)N[C@H]1CC[C@H](c2nnc(C3CCOCC3)o2)CC1 [Example 135, 3-(4-oxo-3,4-dihydroquinazolin-2-yl)-N-((1r,4r)-4-(5-(tetrahydro-2H-pyran-4-yl)-1,3,4-oxadiazol-2-yl)cyclohexyl)propanamide]",–
91.2 nM,536 nM,28800 nM,1570 nM,–,"O=C(CSc1nc2ccccc2c(=O)[nH]1)N[C@H]1CC[C@H](c2nnc(-c3ccccc3)o2)CC1 [Example 96, 2-((4-oxo-3,4-dihydroquinazolin-2-yl)thio)-N-((1r,4r)-4-(5-phenyl-1,3,4-oxadiazol-2-yl)cyclohexyl) acetamide]",–
> 10000 nM,–,4620 nM,1870 nM,–,"O=C(CCc1nc2ccccc2c(=O)[nH]1)N[C@H]1CC[C@H](c2nnc(-c3ncccn3)o2)CC1 [Example 133, 3-(4-oxo-3,4-dihydroquinazolin-2-yl)-N-((1r,4r)-4-(5-(pyrimidin-2-yl)-1,3,4-oxadiazol-2-yl)cyclohexyl)propanamide]",–
1020 nM,–,3500 nM,530 nM,–,"O=C(CCc1nc2c(c(=O)[nH]1)CCCN2)N[C@H]1CC[C@H](c2nnc(-c3ccccc3)o2)CC1 [Example 88, 3-(4-oxo-3,4,5,6,7,8-hexahydropyrido[2,3-d]pyrimidin-2-yl)-N-((1r,4r)-4-(5-phenyl-1,3,4-oxadiazol-2-yl)cyclohexyl)propanamide]",–
79.7 nM,642 nM,2700 nM,982 nM,–,"O=C(CCc1nc2ccccc2c(=O)[nH]1)N[C@H]1CC[C@H](c2nnc(-c3ccccc3)o2)CC1 [Example 2, 3-(4-oxo-3,4-dihydro-2-quinazolinyl)-N-(trans-4-(5-phenyl-1,3,4-oxadiazol-2-yl)cyclohexyl)propanamide]",–
16.7 nM,73.9 nM,–,–,–,"O=C(CCCc1nc2ccccc2c(=O)[nH]1)N[C@H]1CC[C@H](c2nnc(-c3ccccc3)o2)CC1 [Example 10, 4-(4-oxo-3,4-dihydro-2-quinazolinyl)-N-(trans-4-(5-phenyl-1,3,4-oxadiazol-2-yl)cyclohexyl)butanamide]",–
16.7 nM,22.7 nM,–,4950 nM,–,"O=C(CCSc1nc2ccccc2c(=O)[nH]1)N[C@H]1CC[C@H](Oc2ccc(F)cc2)CC1 [Example 100, N-((1r,4r)-4-(4-fluorophenoxy)cyclohexyl)-3-((4-oxo-3,4-dihydroquinazolin-2-yl)thio) propanamide]",–
2130 nM,3330 nM,> 85000 nM,> 170000 nM,–,"O=C(CCSc1nccc(=O)[nH]1)N[C@H]1CC[C@H](c2nnc(-c3ccccc3)o2)CC1 [Example 123, 3-((6-oxo-1,6-dihydropyrimidin-2-yl)thio)-N-((1r,4r)-4-(5-phenyl-1,3,4-oxadiazol-2-yl)cyclohexyl)propanamide]",–
15.9 nM,18.5 nM,–,1760 nM,0.303 nM,"O=C(CCCc1nc2ccccc2c(=O)[nH]1)N[C@H]1CC[C@H](c2nnc(-c3ccc(F)cc3)o2)CC1 [Example 28, N-(trans-4-(5-(4-fluorophenyl)-1,3,4-oxadiazol-2-yl)cyclohexyl)-4-(4-oxo-3,4-dihydro-2-quinazolinyl)butanamide]",–
118 nM,228 nM,–,677 nM,–,"O=C(CCc1nc2ccccc2c(=O)[nH]1)N[C@H]1CC[C@H](c2nnc(-c3ccc(Cl)cc3)o2)CC1 [Example 141, N-((1r,4r)-4-(5-(4-chlorophenyl)-1,3,4-oxadiazol-2-yl)cyclohexyl)-3-(4-oxo-3,4-dihydroquinazolin-2-yl)propanamide]",–
–,> 25000 nM,5450 nM,2610 nM,–,"O=C(CCc1nc2ccccc2c(=O)[nH]1)N[C@H]1CC[C@H](c2nnc(C3CCCCC3)o2)CC1 [Example 138, N-((1r,4r)-4-(5-cyclohexyl-1,3,4-oxadiazol-2-yl)cyclohexyl)-3-(4-oxo-3,4-dihydroquinazolin-2-yl)propanamide]",–
